In paper PMC1533168 (Environmental Health Perspectives, 1998):
Values joined by “and” are separate entries in the source; they are usually repeats but may differ in a detail not shown here. Identical values can stand only once. Like-named read-outs stand apart in the source and are kept apart here.

Legend:
[1] = Controlled chamber inhalation exposure: trichloroethene in venous blood; assay type: in vivo, human; conditions: for Blood model value at t = 0 (Blood, meas): elimination model; for Blood model value at t = 0 (Blood, meas) / Blood model value at t = 240: end of 100 ppmv 4 hr inhalation; for A coefficient (first), blood elimination model / Blood, 1st compartment half-life, elimination / A2 coefficient, blood elimination model: elimination period after 100 ppmv 4 hr inhalation; for Blood model value at t = 240: uptake model; for Blood, 1st compartment half-life, uptake / k1 time constant, blood uptake model: uptake period, 100 ppmv 4 hr inhalation; for k1 time constant, blood uptake model: time in minutes
[2] = assay type: in vivo, human; conditions: for A2 coefficient, breath elimination model / A1 coefficient, breath elimination model / Breath, 1st compartment half-life, elimination / Breath, 2nd compartment half-life, elimination / Breath, 3rd compartment half-life, elimination: elimination period after 100 ppmv 4 hr inhalation; for Breath model value at t = 0: elimination model; for Breath model value at t = 0 / Breath model value at t = 240: end of 100 ppmv 4 hr inhalation; for Breath model value at t = 240: uptake model; for Breath, 1st compartment half-life, uptake / k1 time constant, breath uptake model: uptake period, 100 ppmv 4 hr inhalation
[3] = assay type: in vivo, human; conditions: for Calc:meas ratio of peak blood level: elimination curves
[4] = cited from earlier work
[5] = all subjects, 100 ppmv 4 hr inhalation and 20 hr purified air
[6] = Subject 108, end of 100 ppmv 4 hr inhalation
[7] = Subject 109, end of 100 ppmv 4 hr inhalation
[8] = Subject 110, end of 100 ppmv 4 hr inhalation
[9] = Subject 208, end of 100 ppmv 4 hr inhalation
[10] = Subject 209, end of 100 ppmv 4 hr inhalation
[11] = Subject 210, end of 100 ppmv 4 hr inhalation
[12] = all individual data point pairs, all subjects
[13] = measured in vitro, ref Fiserova-Bergerova and Diaz (24)

ClC=C(Cl)Cl [trichloroethene]
Blood model value at t = 0 (Blood, meas) ([1]; Subject 108): 1,170.1 pg/I and 1,170 pg/I | A coefficient (first), blood elimination model ([1]; Subject 108): 820.7 micrograms per liter | Blood, 1st compartment half-life, elimination ([1]; Subject 108): 23.54 min | Blood model value at t = 240 ([1]; Subject 108): 1,317 pg/I | Blood, 1st compartment half-life, uptake ([1]; Subject 108): 26.60 min | k1 time constant, blood uptake model ([1]; Subject 108): 0.02606 | Blood model value at t = 0 (Blood, meas) ([1]; Subject 109): 2,161.0 pg/I and 2,161 pg/I | A2 coefficient, blood elimination model ([1]; Subject 109): 287.0 micrograms per liter | A coefficient (first), blood elimination model ([1]; Subject 109): 1874 micrograms per liter | Blood, 1st compartment half-life, elimination ([1]; Subject 109): 17.93 min | Blood model value at t = 240 ([1]; Subject 109): 1,839 pg/I | Blood, 1st compartment half-life, uptake ([1]; Subject 109): 64.90 min | k1 time constant, blood uptake model ([1]; Subject 109): 0.01068 | Blood model value at t = 0 (Blood, meas) ([1]; Subject 110): 1,481 pg/I and 1,480.9 pg/I | A2 coefficient, blood elimination model ([1]; Subject 110): 979.1 micrograms per liter | A coefficient (first), blood elimination model ([1]; Subject 110): 501.8 micrograms per liter | Blood, 1st compartment half-life, elimination ([1]; Subject 110): 6.86 min | Blood model value at t = 240 ([1]; Subject 110): 1,377 pg/I | Blood, 1st compartment half-life, uptake ([1]; Subject 110): 45.66 min | k1 time constant, blood uptake model ([1]; Subject 110): 0.01518 | Blood model value at t = 0 (Blood, meas) ([1]; Subject 208): 1,284.6 pg/I and 1,285 pg/I | A2 coefficient, blood elimination model ([1]; Subject 208): 385.1 micrograms per liter | A coefficient (first), blood elimination model ([1]; Subject 208): 899.5 micrograms per liter | Blood, 1st compartment half-life, elimination ([1]; Subject 208): 12.49 min | Blood model value at t = 240 ([1]; Subject 208): 1,181 pg/I | Blood, 1st compartment half-life, uptake ([1]; Subject 208): 24.65 min | k1 time constant, blood uptake model ([1]; Subject 208): 0.02812 | Blood model value at t = 0 (Blood, meas) ([1]; Subject 209): 1,641.0 pg/I and 1,641 pg/I | A2 coefficient, blood elimination model ([1]; Subject 209): 238.0 micrograms per liter | A coefficient (first), blood elimination model ([1]; Subject 209): 1403 micrograms per liter | Blood, 1st compartment half-life, elimination ([1]; Subject 209): 21.74 min | Blood model value at t = 240 ([1]; Subject 209): 1,608 pg/I | Blood, 1st compartment half-life, uptake ([1]; Subject 209): 47.12 min | k1 time constant, blood uptake model ([1]; Subject 209): 0.01471 | Uptake curve model plateau coefficient, blood ([1]; Subject 210, Figure 1A): 1132 micrograms per liter | Blood model value at t = 0 (Blood, meas) ([1]; Subject 210): 1,183 pg/I and 1,182.9 pg/I | A2 coefficient, blood elimination model ([1]; Subject 210): 264.4 micrograms per liter and 264 micrograms per liter | A coefficient (first), blood elimination model ([1]; Subject 210): 918.5 micrograms per liter and 918 micrograms per liter | Blood, 1st compartment half-life, elimination ([1]; Subject 210): 15.39 min | Blood model value at t = 240 ([1]; Subject 210): 1,128 pg/I | Blood, 1st compartment half-life, uptake ([1]; Subject 210): 28.85 min | k1 time constant, blood uptake model ([1]; Subject 210): 0.02403 | Relevant data range for blood samples [1, 5]: 100-1,600 pg/I | A2 coefficient, breath elimination model ([2]; Mean ± SE of 6 subjects): 28.67 6.26 micrograms per liter | Breath model value at t = 0 ([2]; Subject 108): 96.6 pg/I | A1 coefficient, breath elimination model ([2]; Subject 108): 76.7 micrograms per liter | A2 coefficient, breath elimination model ([2]; Subject 108): 15.21 micrograms per liter | Breath, 1st compartment half-life, elimination ([2]; Subject 108): 4.40 min | Breath, 2nd compartment half-life, elimination ([2]; Subject 108): 54.15 min | Breath, 3rd compartment half-life, elimination ([2]; Subject 108): 424.98 min | Breath model value at t = 240 ([2]; Subject 108): 105.8 pg/I | Breath, 1st compartment half-life, uptake ([2]; Subject 108): 9.90 min | k1 time constant, breath uptake model ([2]; Subject 108, time in minutes): 0.07004 | Breath model value at t = 0 ([2]; Subject 109): 175.5 pg/I | A1 coefficient, breath elimination model ([2]; Subject 109): 115.8 micrograms per liter | A2 coefficient, breath elimination model ([2]; Subject 109): 53.76 micrograms per liter | Breath, 1st compartment half-life, elimination ([2]; Subject 109): 1.15 min | Breath, 2nd compartment half-life, elimination ([2]; Subject 109): 27.16 min | Breath, 3rd compartment half-life, elimination ([2]; Subject 109): 541.52 min | Breath model value at t = 240 ([2]; Subject 109): 130.3 pg/I | Breath, 1st compartment half-life, uptake ([2]; Subject 109): 9.59 min | k1 time constant, breath uptake model ([2]; Subject 109, time in minutes): 0.07229 | Breath model value at t = 0 ([2]; Subject 110): 162.5 pg/I | A1 coefficient, breath elimination model ([2]; Subject 110): 146.2 micrograms per liter | A2 coefficient, breath elimination model ([2]; Subject 110): 13.41 micrograms per liter | Breath, 1st compartment half-life, elimination ([2]; Subject 110): 4.07 min | Breath, 2nd compartment half-life, elimination ([2]; Subject 110): 88.18 min | Breath, 3rd compartment half-life, elimination ([2]; Subject 110): 1,269.50 min | Breath model value at t = 240 ([2]; Subject 110): 115.2 pg/I | Breath, 1st compartment half-life, uptake ([2]; Subject 110): 39.05 min | k1 time constant, breath uptake model ([2]; Subject 110, time in minutes): 0.01775 | Breath model value at t = 0 ([2]; Subject 208): 129.9 pg/I | A1 coefficient, breath elimination model ([2]; Subject 208): 104.4 micrograms per liter | A2 coefficient, breath elimination model ([2]; Subject 208): 21.21 micrograms per liter | Breath, 1st compartment half-life, elimination ([2]; Subject 208): 0.97 min | Breath, 2nd compartment half-life, elimination ([2]; Subject 208): 29.98 min | Breath, 3rd compartment half-life, elimination ([2]; Subject 208): 396.31 min | Breath model value at t = 240 ([2]; Subject 208): 98.6 pg/I | Breath, 1st compartment half-life, uptake ([2]; Subject 208): 9.92 min | Breath model value at t = 0 ([2]; Subject 209): 161.2 pg/I | A1 coefficient, breath elimination model ([2]; Subject 209): 114.1 micrograms per liter | A2 coefficient, breath elimination model ([2]; Subject 209): 36.96 micrograms per liter | Breath, 1st compartment half-life, elimination ([2]; Subject 209): 2.68 min | Breath, 2nd compartment half-life, elimination ([2]; Subject 209): 21.44 min | Breath, 3rd compartment half-life, elimination ([2]; Subject 209): 262.26 min | Breath model value at t = 240 ([2]; Subject 209): 147.0 pg/I | Breath, 1st compartment half-life, uptake ([2]; Subject 209): 21.42 min | k1 time constant, breath uptake model ([2]; Subject 209, time in minutes): 0.03236 | Uptake curve model plateau coefficient, breath ([2]; Subject 210, Figure 1B): 113 micrograms per liter | k3 time constant, breath elimination model ([2]; Subject 210, Figure 1D, time in minutes): .00061 | Breath model value at t = 0 ([2]; Subject 210): 194.7 pg/I | A1 coefficient, breath elimination model ([2]; Subject 210): 156.8 micrograms per liter and 157 micrograms per liter | A2 coefficient, breath elimination model ([2]; Subject 210): 31.47 micrograms per liter and 31.5 micrograms per liter | Breath, 1st compartment half-life, elimination ([2]; Subject 210): 1.03 min | Breath, 2nd compartment half-life, elimination ([2]; Subject 210): 40.30 min | Breath, 3rd compartment half-life, elimination ([2]; Subject 210): 1,145.89 min | Breath model value at t = 240 ([2]; Subject 210): 113.0 pg/I | Breath, 1st compartment half-life, uptake ([2]; Subject 210): 18.94 min | k1 time constant, breath uptake model ([2]; Subject 210, time in minutes): 0.0366 | Relevant data range for breath samples [2, 5]: <1-150 pg/I | In vivo blood/breath partition coefficient, elimination-only data set ([3]; Mean ± SE of 6 subjects, end of 100 ppmv 4 hr inhalation): 9.69 | Calc:meas ratio of peak blood level ([3]; Subject 108): 0.76 | Blood:breath ratio at end of exposure, calculated from elimination models [3, 6]: 12.11 | Blood:breath ratio at end of exposure, calculated from uptake models [3, 6]: 12.45 | Calc:meas ratio of peak blood level ([3]; Subject 109): 0.75 | Blood:breath ratio at end of exposure, calculated from elimination models [3, 7]: 12.31 | Blood:breath ratio at end of exposure, calculated from uptake models [3, 7]: 14.12 | Calc:meas ratio of peak blood level ([3]; Subject 110): 1.01 | Blood:breath ratio at end of exposure, calculated from elimination models [3, 8]: 9.11 | Blood:breath ratio at end of exposure, calculated from uptake models [3, 8]: 11.96 | Calc:meas ratio of peak blood level ([3]; Subject 208): 0.93 | Blood:breath ratio at end of exposure, calculated from elimination models [3, 9]: 9.89 | Blood:breath ratio at end of exposure, calculated from uptake models [3, 9]: 11.97 | Calc:meas ratio of peak blood level ([3]; Subject 209): 0.90 | Blood:breath ratio at end of exposure, calculated from elimination models [3, 10]: 10.18 | Blood:breath ratio at end of exposure, calculated from uptake models [3, 10]: 10.94 | Calc:meas ratio of peak blood level ([3]; Subject 210): 1.51 | Blood:breath ratio at end of exposure, calculated from elimination models [3, 11]: 6.07 | Blood:breath ratio at end of exposure, calculated from uptake models [3, 11]: 9.99 | Blood/breath regression slope (mean blood/breath ratio), elimination phase [3, 12]: 29.00 | Blood/breath regression slope (mean blood/breath ratio), uptake phase [3, 12]: 10.93 | Inspired trichloroethene excreted through exhalation ([3]; at equilibrium): about 22% | Share of the expired trichloroethene coming from the blood (first) compartment ([3]; elimination phase after 4-hr exposure): about 75% | In vivo blood/breath partition coefficient, overall mean ([3]; experiment time = 0, all subjects, uptake and elimination experiments): 10.8 | Mean time constant for breath relative to its blood counterpart (times as large) ([3]; initial 10 min of elimination, first compartment dominant): 10 | Time constant for breath relative to that for blood (times as large) ([3]; uptake portion of the experiment): about 2.5 | Blood/air partition coefficient [4, 13]: 8.1 | Partition coefficient for lung tissue [4, 13]: 14.0 | Blood/air partition coefficient ([4]; measured in vitro, ref Gargas et al. (22)): 8.11 | Blood/air partition coefficient ([4]; measured in vitro, ref Lindqvist (23)): 15.7 | Blood/breath partition coefficient, accepted literature value ([4]; used in human pharmacokinetic model, ref Allen and Fisher (26)): 9.2 | Pulmonary partition coefficient ([4]; value used, ref Fernandez et al. (25)): 9
